Assay results published in ChEMBL document CHEMBL1147331, “Cytotoxic and antimalarial bisbenzylisoquinoline alkaloids from Stephania erecta” (J Nat Prod, 1993).
Values after ≈ are worked out from the molar mass of the structure shown.

Tests used:
[1] = Selectivity index, ratio of ED50 for human KB cells to ED50 for chloroquine-resistant Plasmodium falciparum W2; format: toxicity, cell-based; conditions: read-out: Ratio ED50
in vitro [2] = conditions: mouse, P388 cells
Description: Selectivity index, ratio of ED50 for mice (Mus musculus) P388 cells to ED50 for chloroquine-resistant Plasmodium falciparum W2

[3] = Selectivity index, ratio of ED50 for human LNCaP cells to ED50 for chloroquine-resistant Plasmodium falciparum W2; format: toxicity, cell-based; conditions: read-out: Ratio ED50
[4] = Selectivity index, ratio of ED50 for human COL1 cells to ED50 for chloroquine-resistant Plasmodium falciparum W2; format: toxicity, cell-based; conditions: read-out: Ratio ED50
in vitro [5] = conditions: human, A431 cells
Description: Selectivity index, ratio of ED50 for human A431 cells to ED50 for chloroquine-sensitive Plasmodium falciparum D6

[6] = Selectivity index, ratio of ED50 for human BCA1 cells to ED50 for chloroquine-sensitive Plasmodium falciparum D6; format: toxicity, cell-based; conditions: read-out: Ratio ED50
[7] = Selectivity index, ratio of ED50 for human KB-V1 cells to ED50 for chloroquine-sensitive Plasmodium falciparum D6; format: toxicity, cell-based; conditions: read-out: Ratio ED50
[8] = Selectivity index, ratio of ED50 for human BCA1 cells to ED50 for chloroquine-resistant Plasmodium falciparum W2; format: toxicity, cell-based; conditions: read-out: Ratio ED50
[9] = Cytotoxicity against human Col1 cells after 3 days by sulforhodamine B assay; format: cell-based; conditions: read-out: ED50
[10] = Selectivity index, ratio of ED50 for human KB cells to ED50 for chloroquine-sensitive Plasmodium falciparum D6; format: toxicity, cell-based; conditions: read-out: Ratio ED50
[11] = Cytotoxicity against human LUC1 cells after 3 days by sulforhodamine B assay; format: cell-based; conditions: read-out: ED50
[12] = Cytotoxicity against human ZR-75-1 cells after 3 days by sulforhodamine B assay; format: cell-based; conditions: read-out: ED50
[13] = Cytotoxicity against human SK-MEL-2 cells after 3 days by sulforhodamine B assay; format: cell-based; conditions: read-out: ED50
[14] = Selectivity index, ratio of ED50 for human LUC1 cells to ED50 for chloroquine-sensitive Plasmodium falciparum D6; format: toxicity, cell-based; conditions: read-out: Ratio ED50
[15] = Cytotoxicity against human KBV1 cells after 3 days by sulforhodamine B assay; format: cell-based, KB-V1; conditions: read-out: ED50
[16] = Selectivity index, ratio of ED50 for human MEL2 cells to ED50 for chloroquine-sensitive Plasmodium falciparum D6; format: toxicity, cell-based; conditions: read-out: Ratio ED50
in vitro [17] = conditions: mouse, P388 cells; remark: listed apart in the source
Description: Selectivity index, ratio of ED50 for mice (Mus musculus) P388 cells to ED50 for chloroquine-sensitive Plasmodium falciparum D6

Plasmodium falciparum [18] = experiment: Antimalarial activity after 24 hrs against chloroquine-sensitive Plasmodium falciparum D6 infected type A+ human erythrocytes by [3H]hypoxanthine uptake; format: functional; conditions: read-out: ED50 (the source's name)
[19] = Selectivity index, ratio of ED50 for human MEL2 cells to ED50 for chloroquine-resistant Plasmodium falciparum W2; format: toxicity, cell-based; conditions: read-out: Ratio ED50
[20] = Selectivity index, ratio of ED50 for human ZR-75-1 cells to ED50 for chloroquine-sensitive Plasmodium falciparum D6; format: toxicity, cell-based; conditions: read-out: Ratio ED50
[21] = Cytotoxicity against human HT1080 cells after 3 days by sulforhodamine B assay; format: cell-based, HT-1080; conditions: read-out: ED50
[22] = Selectivity index, ratio of ED50 for human LUC1 cells to ED50 for chloroquine-resistant Plasmodium falciparum W2; format: toxicity, cell-based; conditions: read-out: Ratio ED50
[23] = Selectivity index, ratio of ED50 for human COL1 cells to ED50 for chloroquine-sensitive Plasmodium falciparum D6; format: toxicity, cell-based; conditions: read-out: Ratio ED50
in vitro [24] = conditions: human, A431 cells; remark: listed apart in the source
Description: Selectivity index, ratio of ED50 for human A431 cells to ED50 for chloroquine-resistant Plasmodium falciparum W2

[25] = Cytotoxicity against human KB cells after 3 days by sulforhodamine B assay; format: cell-based; conditions: read-out: ED50
[26] = Selectivity index, ratio of ED50 for human HT1080 cells to ED50 for chloroquine-resistant Plasmodium falciparum W2; format: toxicity, cell-based, HT-1080; conditions: read-out: Ratio ED50
[27] = Cytotoxicity against human LNCAP cells after 3 days by sulforhodamine B assay; format: cell-based; conditions: read-out: ED50
[28] = Selectivity index, ratio of ED50 for human KB-V1 cells to ED50 for chloroquine-resistant Plasmodium falciparum W2; format: toxicity, cell-based; conditions: read-out: Ratio ED50
[29] = Cytotoxicity against mouse P388 cells after 2 days by sulforhodamine B assay; format: cell-based; conditions: read-out: ED50
[30] = Selectivity index, ratio of ED50 for human HT1080 cells to ED50 for chloroquine-sensitive Plasmodium falciparum D6; format: toxicity, cell-based, HT-1080; conditions: read-out: Ratio ED50
[31] = Cytotoxicity against human A431 cells after 3 days by sulforhodamine B assay; format: cell-based, A-431; conditions: read-out: ED50
Plasmodium falciparum [32] = experiment: Antimalarial activity after 24 hrs against chloroquine-resistant Plasmodium falciparum W2 infected type A+ human erythrocytes by [3H]hypoxanthine uptake; format: functional; conditions: read-out: ED50 (the source's name)
[33] = Selectivity index, ratio of ED50 for human ZR-75-1 cells to ED50 for chloroquine-resistant Plasmodium falciparum W2; format: toxicity, cell-based; conditions: read-out: Ratio ED50
[34] = Cytotoxicity against human BCA1 cells after 3 days by sulforhodamine B assay; format: cell-based; conditions: read-out: ED50
[35] = Selectivity index, ratio of ED50 for human LNCaP cells to ED50 for chloroquine-sensitive Plasmodium falciparum D6; format: toxicity, cell-based; conditions: read-out: Ratio ED50

Row | SMILES | selectivity ratio [1] | selectivity ratio (in vitro [2]) | selectivity ratio [3] | selectivity ratio [4] | selectivity ratio (in vitro [5]) | selectivity ratio [6] | selectivity ratio [7] | selectivity ratio [8] | CC50 at 72 h [9] | selectivity ratio [10] | CC50 at 72 h [11] | CC50 at 72 h [12] | CC50 at 72 h [13] | selectivity ratio [14] | CC50 at 72 h [15] | selectivity ratio [16] | selectivity ratio (in vitro [17]) | EC50 (Plasmodium falciparum [18]) | selectivity ratio [19] | selectivity ratio [20] | other results
1 | COc1ccc2cc1Oc1ccc(cc1)C[C@H]1c3c(cc4c(c3Oc3cc5c(cc3OC)CCN(C)[C@@H]5C2)OCO4)CCN1C [CEPHARANTHINE] | 20 | 1 | 19 | 31 | 15 | 34 | 6 | 16 | 9 µg/mL (≈ 14.8 µM) | 42 | 8.8 µg/mL (≈ 14.5 µM) | 1 µg/mL (≈ 1.65 µM) | 14.5 µg/mL (≈ 23.9 µM) | 52 | 0.9 µg/mL (≈ 1.48 µM) | 103 | 2 | 0.14 µg/mL (≈ 0.231 µM) | 49 | 7 | CC50 at 72 h [21]: 6.1 µg/mL (≈ 10.1 µM); selectivity ratio [22]: 25; selectivity ratio [23]: 64; selectivity ratio (in vitro [24]): 7; CC50 at 72 h [25]: 5.9 µg/mL (≈ 9.72 µM); selectivity ratio [26]: 21; CC50 at 72 h [27]: 5.6 µg/mL (≈ 9.23 µM); selectivity ratio [28]: 3; CC50 at 48 h [29]: 0.3 µg/mL (≈ 0.494 µM); selectivity ratio [30]: 44; CC50 at 72 h [31]: 2.1 µg/mL (≈ 3.46 µM); EC50 (Plasmodium falciparum [32]): 0.295 µg/mL (≈ 0.486 µM); selectivity ratio [33]: 3; CC50 at 72 h [34]: 4.7 µg/mL (≈ 7.75 µM); selectivity ratio [35]: 40
2 | COc1ccc2cc1Oc1ccc(cc1)C[C@H]1c3c(cc(OC)c(O)c3Oc3cc4c(cc3OC)CCN(C)[C@@H]4C2)CCN1C [HOMOAROMOLINE] | 22 | 13 | 12 | 35 | 85 | 34 | 30 | 13 | 10 µg/mL (≈ 16.4 µM) | 60 | 8.6 µg/mL (≈ 14.1 µM) | 1.2 µg/mL (≈ 1.97 µM) | 9 µg/mL (≈ 14.8 µM) | 93 | 3.1 µg/mL (≈ 5.09 µM) | 86 | 35 | 0.105 µg/mL (≈ 0.172 µM) | 31 | 19 | CC50 at 72 h [21]: 9 µg/mL (≈ 14.8 µM); selectivity ratio [22]: 34; selectivity ratio [23]: 96; selectivity ratio (in vitro [24]): 31; CC50 at 72 h [25]: 6.3 µg/mL (≈ 10.3 µM); selectivity ratio [26]: 31; CC50 at 72 h [27]: 3.4 µg/mL (≈ 5.59 µM); selectivity ratio [28]: 11; CC50 at 48 h [29]: 3.7 µg/mL (≈ 6.08 µM); selectivity ratio [30]: 86; CC50 at 72 h [31]: 8.9 µg/mL (≈ 14.6 µM); EC50 (Plasmodium falciparum [32]): 0.288 µg/mL (≈ 0.474 µM); selectivity ratio [33]: 7; CC50 at 72 h [34]: 3.6 µg/mL (≈ 5.91 µM); selectivity ratio [35]: 33
